Data reported in patent US5010067A, “Triglyceride-water emulsion pharmaceutical vehicles” (Sandoz Pharmaceuticals Corp., priority 1988, dated 1991).
“Also recorded” adds a separate entry of the source. Structures can show the parent of a compound that is named as a salt.

Tests used:
rat tail [1] = test: Detergent-like effects at tail vein injection site in rats, repeated daily injection for 14 days (compound in Emulsion A); format: in vivo; conditions: for Sloughing of tissue, incidence: mild sloughing in various areas (Compound A) / small dots at injection sites (Compound B); for Ischemia, incidence: by/at 14 days; for Average gain in body weight: over 14 days; for Edema, incidence: tail vein, by/at day 14; for Edema, day of onset: majority of rats; for Edema, day of onset in single late rat: one rat; for Overall damage to the rat tail / negative effects: compared with other compound or other vehicles
Description: A commercial 10% intravenous fat emulsion having 5% safflower oil and 5% soybean oil, USP, i.e. "Liposyn II 10%" described above, hereinafter referred to as Emulsion A, is employed.
The test compound is suspended or dissolved in Emulsion A at a concentration of 28 mg/ml. Probe sonification is employed to make a homogenous drug suspension or solution.
Rats are injected with 0.1 ml/100 g body weight. Control animals are injected with Emulsion A alone at the same volume as drug treated rats.
Each rat is placed in a plastic restraining tube, leaving its tail exposed A warm water soaked gauze pad is placed on the tail for approximately 10 seconds to help dilate the tail vein. A 25 gauge needle attached to a 1 cc tuberculine syringe is used to administer drug/control to the rat. To assure proper administration of doses, a negative pressure is achieved by drawing back slowly on the plunger of the syringe. A flashback of blood into the hub of the needle indicates proper placement of the needle, and drug/control is then administered slowly to the rat. After administration of dose, needle is removed and pressure with a clean gauze pad applied for approximately 10 seconds to keep fluid from flowing out of injection site. The rat is returned to its cage and procedure repeated for each animal.
Body weight and visual observations for detergent-like effects are recorded each day and at the end of the 14 day period; particularly for edema, ischemia and necrosis.
Tests were run to observe detergent-like effects on laboratory rats using as active ingredient either 3-[2-[octadecylaminocarbonyloxymethyl-tetrahydrofuran-2-ylmethoxy)-hydroxy-phosphinyloxy]-ethane]-thiazolium hydroxide inner salt-4-oxide (as Compound A) or cis-1-(2-[hydroxy[[tetrahydro-5-[(octadecylaminocarbonyl)oxy]methyl]furan- 2-yl]methoxyphosphinyloxy]ethyl)-quinolinium hydroxide, inner salt-4-oxide (as Compound B). Each of Compounds A and B was administered to a group of 5 rats.
Each of the two compounds were tested at 28 mg/kg suspended in the 10% intravenous fat emulsion. Rats were injected once a day for 14 consecutive days and monitored for the aforementioned signs of tail morbidity.

rat tail [2] = test: Previous tests: injection of standard water-based mixtures in rats' tails; format: in vivo; conditions: for Test halted because of detergent-like effects around the injection site: standard water-based mixtures, 25 mg/kg and over; for Reduction of detergent-like effects by adjustment of pH, or inclusion of buffers or serum albumin: water-based mixtures
[3] = 28 mg/kg once daily in Emulsion A, 14 days
[4] = 28 mg/kg once daily in Emulsion A

CCCCCCCCCCCCCCCCCCNC(=O)OC[C@H]1CC[C@@H](COP(=O)([O-])OCC[n+]2cccc3ccccc32)O1 (relative stereo) [Compound B, cis-1-(2-[hydroxy[[tetrahydro-5-[(octadecylaminocarbonyl)oxy]methyl]furan-2-yl]methoxyphosphinyloxy]ethyl)-quinolinium hydroxide, inner salt-4-oxide]
Edema, severity (rat tail [1]; [3]): mild edema
Ischemia, severity (rat tail [1]; [3]): small areas of ischemia; also recorded: mild edema and ischemia
Necrosis, incidence (rat tail [1]; [3]): 5/5
Necrosis, severity / lesion size (rat tail [1]; [3]): small areas of ischemia and necrosis; also recorded: very small areas; also recorded: necrotic lesions being much smaller
Slightly larger area of sloughing, incidence (rat tail [1]; [3]): 1/5
Sloughing of tissue, incidence (rat tail [1]; [3]): 2/5
Ischemia, incidence (rat tail [1]; [4]): 5/5
Average gain in body weight (rat tail [1]; [4]): 29.6%
Edema, incidence (rat tail [1]; [4]): 5/5
Edema, day of onset (rat tail [1]; [4]): ~4 days
Edema, day of onset in single late rat (rat tail [1]; [4]): 10 days
Period for which tests could be run (rat tail [1]; in Emulsion A): 14 days
Overall damage to the rat tail / negative effects (rat tail [1]; in Emulsion A, 14 days): least amount of damage to the rat tail; also recorded: visibly better
Test halted because of detergent-like effects around the injection site (rat tail [2]): forced to halt after only a few days
Reduction of detergent-like effects by adjustment of pH, or inclusion of buffers or serum albumin (rat tail [2]): had not proven satisfactory

CCCCCCCCCCCCCCCCCCNC(=O)OCC1(COP(=O)([O-])OCC[n+]2ccsc2)CCCO1 (stereo not drawn) [Compound A]
Edema, severity (rat tail [1]; [3]): moderate edema
Ischemia, severity (rat tail [1]; [3]): moderate edema and ischemia
Necrosis, incidence (rat tail [1]; [3]): All rats had mottled necrotic areas
Sloughing of tissue, incidence (rat tail [1]; [3]): 3/4
Ischemia, incidence (rat tail [1]; [4]): All rats displayed ischemia of entire tail
Average gain in body weight (rat tail [1]; [4]): 24%
Edema, incidence (rat tail [1]; [4]): All rats showed some amount of edema
Edema, day of onset (rat tail [1]; [4]): 2 to 4 days
Edema, day of onset in single late rat (rat tail [1]; [4]): 13 days
Period for which tests could be run (rat tail [1]; in Emulsion A): 14 days
Animals having necrotic tissue (rat tail [1]; in Emulsion A, 14 days): 100%
Animals with sloughing of necrotic tissue (rat tail [1]; in Emulsion A, 14 days): 75%
Overall damage to the rat tail / negative effects (rat tail [1]; in Emulsion A, 14 days): greatly reduced the negative effects
Test halted because of detergent-like effects around the injection site (rat tail [2]): forced to halt after only a few days
Reduction of detergent-like effects by adjustment of pH, or inclusion of buffers or serum albumin (rat tail [2]): had not proven satisfactory
